Tests used:
[1] = Photoisomerization reaction assessed by time-dependent changes of absorption spectra; type: physicochemical; settings: 25 μM in methanol, dark place; for photoisomerization from cis form to trans form: visible light of 550 nm; for photoisomerization from trans form to cis form: visible light of 420 nm
Procedure: A stock solution was prepared by dissolving the 8-phenylazoguanosine obtained in (3-1) in methanol so that the 8-phenylazoguanosine presented at a concentration of 25 μM in the stock solution. In a quartz cell measuring 1 cm per side was placed 200 μl out of the stock solution thus prepared. The quartz cell was irradiated with visible light having a wavelength of 420 nm in a dark place, so that photoisomerization of the trans-8-phenylazoguanosine was assessed by measuring time-dependent changes of absorption spectra of the 8-phenylazoguanosine. In this assessment, MAX-301 manufactured by Asahi Spectra Co., Ltd. was used as a light source, and M.C.420/10 nm manufactured by the same manufacturer was used as a filter. As shown in FIG. 4 (in the upper part), along with trans to cis photoisomerization of the trans-8-phenylazoguanosine, a peak of an absorbance at 420 nm decreased, and an absorbance at 500 to 600 nm increased.
Out of the stock solution prepared in (3-2-1), 200 μl of stock solution was isomerized to the cis form as described previously, after which the resulting product was placed in a quartz cell measuring 1 cm per side. The quartz cell was irradiated with visible light having a wavelength of 550 nm in a dark place, so that photoisomerization of cis-8-phenylazoguanosine was assessed by measuring time-dependent changes of absorption spectrum of the 8-phenylazoguanosine. […] As shown in FIG. 4 (in the lower part), along with trans photoisomerization of the cis-8-phenylazoguanosine, a peak of an absorbance at 420 nm increased, and an absorbance at 500 to 600 nm decreased.
A stock solution was prepared by dissolving the trans-8-(p-toluoylazo)guanosine obtained in (4-1) in methanol so that the trans-8-(p-toluoylazo) guanosine presented at a concentration of 25 μM in the stock solution. […] The quartz cell was irradiated with visible light having a wavelength of 420 nm in a dark place, so that photoisomerization of the trans-8-(p-toluoylazo)guanosine was assessed by measuring time-dependent change of absorption spectra of the trans-8-(p-toluoylazo)guanosine. […] As shown in FIG. 6 (in the upper part), along with cis photoisomerization of the trans-8-(p-toluoylazo)guanosine, a peak of an absorbance at 420 nm decreased, and an absorbance at 500 to 600 nm increased.
Out of the stock solution prepared in (4-2-1), 200 μl of stock solution was isomerized to the cis form as described previously, after which the resulting product was placed in a quartz cell measuring 1 cm per side. The quartz cell was irradiated with visible light having a wavelength of 550 nm in a dark place, so that photoisomerization of cis-8-(p-toluoylazo) guanosine was assessed by measuring time-dependent changes of absorption spectrum of the cis-8-(p-toluoylazo)guanosine. […]

[2] = Alternate cis-trans photoisomerization, durability against reversible photoisomerization (absorbance 420 nm); type: physicochemical; settings: 25 μM in methanol, alternate 420 nm / 550 nm, each 20 seconds, 30 cycles
Procedure: A stock solution was prepared by dissolving the trans-8-phenylazoguanosine obtained in (3-1) in methanol so that the trans-8-phenylazoguanosine presented at a concentration of 25 μM in the stock solution. In a quartz cell measuring 1 cm per side was placed 200 μl out of the stock solution. The quartz cell was alternately irradiated with visible light having wavelength of 420 nm and with visible light having a wavelength of 550 nm, each for 20 seconds, in a dark place. While this process was repeated in 30 cycles, an absorbance (420 nm) was measured. From the result of the measurement, durability of the compound against reversible photoisomerization was assessed. MAX-301 manufactured by Asahi Spectra Co., Ltd. was used as a light source, and M.C.420/10 nm and M.C.550/10 nm manufactured by the same manufacturer were used as filters.

Row | Compound | photoisomerization from cis form to trans form [1] | photoisomerization from trans form to cis form [1] | other results
1 | Cc1ccc(/N=N\c2nc3c(=O)[nH]c(N)nc3n2[C@@H]2O[C@H](CO)[C@H](O)C2O)cc1 (stereo partly drawn) | photoisomerized nearly completely to the trans form |  | 
2 | Cc1ccc(/N=N/c2nc3c(=O)[nH]c(N)nc3n2[C@@H]2O[C@H](CO)[C@H](O)C2O)cc1 (stereo partly drawn) |  | photoisomerized nearly completely to the cis form | 
3 | Nc1nc2c(nc(/N=N\c3ccccc3)n2[C@@H]2O[C@H](CO)[C@H](O)C2O)c(=O)[nH]1 (stereo partly drawn) [cis-8-phenylazoguanosine] | photoisomerized nearly completely to the trans form |  | 
4 | Nc1nc2c(nc(/N=N/c3ccccc3)n2[C@@H]2O[C@H](CO)[C@H](O)C2O)c(=O)[nH]1 (stereo partly drawn) [trans-8-phenylazoguanosine] |  | photoisomerized nearly completely to the cis form | 
5 | trans-8-phenylazoguanosine |  |  | durability against reversible photoisomerization (decomposition, side-reaction) [2]: no decomposition and side-reaction; trans to cis and cis to trans photoisomerizations on alternate irradiation [2]: alternately took place

Source: patent US9458515B2, “RNA including nucleoside compound, method for regulating amount of protein produced from the RNA, and nucleoside compound” (RIKEN, priority 2010, dated 2016)
